This is an account of results in patent US20120202819A1, “COMBINATION THERAPY USING A BETA 3 […] RECEPTOR AGONISTS AND AN […] AGENT” (Merck Sharp & Dohme Corporation, priority 2009, published 2012).

As a reminder, the Ki is the equilibrium dissociation constant of an inhibitor or competing ligand from its target.

Like-named read-outs stand apart in the source and are kept apart here.

Test [1] addresses T1, human β3 adrenergic receptor (Homo sapiens, UniProt P13945).
T1 construct: expressed in transfected cells; host or cells: Chinese hamster ovary (CHO) cells, stably transfected
As to the kind of experiment: Functional assay: cAMP production in CHO cells transfected with cloned β-adrenergic receptor. Type of test: cell-based. The procedure: Biological Assays for β3 Functional Activities: The following in vitro assays are suitable for screening compounds that have selective β3 agonist activity:
Functional Assay: cAMP production in response to ligand is measured according to Barton, et al. (1991, Agonist-induced desensitization of D2 dopamine receptors in human Y-79 retinoblastoma cells. Mol. Pharmacol. […]) modified as follows. cAMP production is measured using a homogenous time-resolved fluorescence resonance energy transfer immunoassay (LANCE™, Perkin Elmer) according to the manufacture's instructions. Chinese hamster ovary (CHO) cells, stably transfected with the cloned 13-adrenergic receptor (β1, β2 or β3) are harvested after 3 days of subculturing. Harvesting of cells is done with Enzyme-free Dissociation Media (Specialty Media). Cells are then counted and resuspended in assay buffer (Hank's Balanced salt solution supplemented with 5 mM HEPES, 0.1% BSA) containing a phosphodiesterase inhibitor (IBMX, 0.6 mM). The reaction is initiated by mixing 6,000 cells in 6 with 6 μL Alexa Fluor labeled cAMP antibody (LANCE™ kit) which is then added to an assay well containing 12 μL of compound (diluted in assay buffer to 2× final concentration). The reaction proceeds for 30 min at room temperature and is terminated by the addition of 24 detection buffer (LANCE™ kit). The assay plate is then incubated for 1 h at room temperature and time-resolved fluorescence measured on a Perkin Elmer Envision reader or equivalent. The unknown cAMP level is determined by comparing fluorescence levels to a cAMP standard curve.
The non-selective, full agonist 13-adrenergic ligand isoproterenol is used at all three receptors to determine maximal stimulation. The human β3 adrenergic receptor (AR) selective ligand (S)-N-[4-[2-[[2-hydroxy-3-(4-hydroxyphenoxy)propyl]amino]ethyl]-phenyl]-4-iodobenzenesulfonamide is used as a control in all assays. […] Data are analyzed using Microsoft Excel and Graphpad Prism or an internally developed data analysis software package.
In general terms: Changes in cAMP serve as a functional read-out for many G protein-coupled receptors.

Test [2] deals with bladder capacity. As to the kind of experiment: Bladder capacity (cystometry) in anesthetized rhesus monkeys. Type of test: in vivo, rhesus monkeys (Macaca mulatta). The conditions noted are these: mean of 4-6 animals. The text has this: Adult female rhesus monkeys (Macaca mulatta) weighed 5.3-6.2 kg (4-7 year-old) were used. The subjects were either paired or individually housed on a 12-h light/12-h dark cycle (lights on at 7:00 AM). Their diet consisted of 2050 Teklad (Harlan Laboratories, Indianapolis, Ind.) and fresh fruit or vegetable. Water was freely available. All animals were observed daily by a veterinary technician and caretakers for signs of ill health. Subjects were repeatedly used with >13-day resting period. Monkeys were anesthetized with an intramuscular injection of either Telazol (3-5 mg/kg) or ketamine (10-20 mg/kg) followed by intravenous constant rate infusion with ketamine (0.2-0,8 mg/kg/min) using a syringe pump (552222, Harvard Apparatus, Holliston, Mass.). Animals were placed in a supine position and a triple lumen balloon transurethral catheter (7.4 Fr, Cook Medical, Bloomington, Ind.) was inserted into the bladder and the balloon was inflated with 1 mL of water to secure the tip of catheter at the bladder base. The catheter was connected with an infusion pump (Gemini PC-2TX, ALARIS Medical Systems, San Diego, Calif.) for bladder filling and a pressure transducer for intravesical pressure monitoring. Intravesical pressure was continuously recorded using a multiple channel data acquisition system (Power lab, AD Instruments, Biopac systems, Colorado Springs, Colo.) at a sampling rate of 20 Hz. After confirming bladder emptiness by an ultrasonography (Logiq e vet, GE Medical Systems, Waukesha, Wis., FIG. 1A), saline was intravesically infused at 15 mL/min. When the steep rise in pressure indicative of the micturition reflex was observed, intravesical infusion was stopped and the bladder was manually emptied with a 60 ml syringe.
After two baseline cystometry readings, drug was intravenously administered three times using a rising dose paradigm with a cystometry performed 10 min after each dose. Bladder capacity was measured for each cystometry and % change from the baseline capacity was calculated. As used herein, the term “baseline capacity” or “baseline” means the average bladder capacity from two pre-dose measurements.
The reported results are mean values of % change from baseline in 4-6 animals.

Test [3] deals with T2, muscarinic receptor M4 (Homo sapiens, UniProt P08173).
T2 sequence (P08173 1-479): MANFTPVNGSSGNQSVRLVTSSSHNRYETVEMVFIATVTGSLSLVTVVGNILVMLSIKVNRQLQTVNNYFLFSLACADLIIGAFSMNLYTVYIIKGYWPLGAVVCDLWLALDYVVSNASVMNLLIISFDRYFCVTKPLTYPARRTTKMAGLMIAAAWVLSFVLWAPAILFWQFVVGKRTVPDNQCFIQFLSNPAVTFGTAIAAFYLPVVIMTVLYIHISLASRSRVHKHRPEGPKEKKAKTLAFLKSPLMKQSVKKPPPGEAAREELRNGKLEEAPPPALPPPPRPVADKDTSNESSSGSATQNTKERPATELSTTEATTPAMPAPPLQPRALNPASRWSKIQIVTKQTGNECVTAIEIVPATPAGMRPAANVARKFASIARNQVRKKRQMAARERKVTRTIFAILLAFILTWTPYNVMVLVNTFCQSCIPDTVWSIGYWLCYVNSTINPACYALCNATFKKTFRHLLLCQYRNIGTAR
The settings on record: Ohtake et al.; cited from earlier work.

For test [4], the system named is EFS-induced isolated detrusor muscle contractions. As to the kind of experiment: EFS-induced contraction of isolated rat detrusor muscle strips, with isobologram analysis. Set-up: species or system Sprague-Dawley rats. The procedure: Male adult Sprague-Dawley rats were used. After euthanizing using CO2 gas, a whole bladder was removed. Longitudinal strips (about 6 mm×3 mm) of the extratrigonal portion of the detrusor muscle were prepared. […] The strips were tied at one end to the organ bath, and connected at the other end to an isometric transducer (AD Instruments) under a resting tension of 10 mN. The responses of the preparations were recorded at a sampling rate of 10 Hz by a multiple channel data acquisition system (PowerLab, AD Instruments), and measured with an analysis software (Chart, AD Instruments). After the equilibration period for at least 60 min, each tissue strip was challenged to electrical field stimulation (EFS) at 60 Hz; duration, 0.3 ms; 3 sec; 90 V to induce contractions. Upon obtaining stable contractions with EFS, compound solution (25 μL) was applied into organ bath in a cumulative manner. After 15 min of each compound treatment, EFS was applied.
Isobologram Analysis was used to evaluate the synergic effect of a combination therapy. Isobologram Analysis provides a visual assessment of the interaction of two different agents using independent statistical analysis. The statistical analysis can be accomplished from calculations of certain potency indices from single treatment of each compound and fixed-ratio combinations for the same effect.
Isobologram for some particular effect (e.g., 50% of the maximum) in which the dose of active agent A alone is A=20 and active agent B alone is B=100. The straight line connecting these intercept points (additivity line) is the locus of all dose pairs that, based on these potencies, should give the same effect, An actual dose pair such as point Q attains this effect with lesser quantities and is synergistic (or super-additive), while the dose pair denoted by point R means greater quantities are required and is therefore sub-additive.

Setting [5] is: cAMP, CHO cells, read-out: human β3 functional activity.
The mark [6] stands for this setting: human β3 functional activity, read-out: HUMAN β3 BINDING.

T1 sequence (P13945 whole entry): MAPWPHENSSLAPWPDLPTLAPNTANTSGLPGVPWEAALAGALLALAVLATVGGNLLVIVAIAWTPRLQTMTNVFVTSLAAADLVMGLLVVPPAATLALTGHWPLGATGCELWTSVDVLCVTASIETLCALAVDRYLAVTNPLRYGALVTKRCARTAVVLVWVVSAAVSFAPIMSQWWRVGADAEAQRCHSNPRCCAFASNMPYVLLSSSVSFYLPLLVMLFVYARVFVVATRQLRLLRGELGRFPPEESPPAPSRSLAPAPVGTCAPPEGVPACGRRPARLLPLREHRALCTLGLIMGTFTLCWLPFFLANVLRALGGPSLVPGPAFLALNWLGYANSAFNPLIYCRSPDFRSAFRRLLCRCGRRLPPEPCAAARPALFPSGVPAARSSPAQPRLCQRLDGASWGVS

On to `Cc1ncn(C(C)C(=O)Nc2ccc(C[C@@H]3CC[C@H]([C@H](O)c4ccccc4)N3)cc2)n1` (stereo partly drawn) [Compound 11], for which, in test [1] (setting [5]), the EC50 lay in the range of 1 to 10 nM.
Take `O=C(Cn1ncccc1=O)Nc1ccc(C[C@@H]2CC[C@H]([C@H](O)c3ccccc3)N2)cc1` [Compound 5]: the EC50 in test [1] (setting [6]) lay within 1 to 10 nM.
As to `Nc1nc(CC(=O)Nc2ccc(C[C@@H]3CC[C@H]([C@H](O)c4ccccc4)N3)cc2)cs1` [Compound 2, 2-(2-Amino-1,3-thiazol-4-yl)-N-[4-({(2S, 5R)-[(R)-hydroxy(phenyl)methyl]pyrrolidinyl}methyl)phenyl]acetamide], the EC50 in test [1] (setting [5]) was 1 to 10 nM.
On to `O=C(Cn1cnc2ccccc2c1=O)Nc1ccc(C[C@@H]2CC[C@H]([C@H](O)c3ccccc3)N2)cc1` [Compound 4], for which the EC50 in test [1] (setting [6]) was 1 to 10 nM.
On to `NC(=O)C(c1ccccc1)(c1ccccc1)[C@@H]1CCN(CCc2ccc3c(c2)CCO3)C1` [Darifenacin, (S)-2-[1-[2-(2,3-dihydrobenzofuran-5-yl)ethyl]pyrrolidin-3-yl]-2,2-diphenyl-acetamide], for which the “Bladder capacity, % change from baseline” value is reported as 8.9% in test [2] (mono-therapy 0.01 mg/kg iv), 18.3% in test [2] (mono-therapy 0.03 mg/kg iv) and 29.4% in test [2] (mono-therapy 0.1 mg/kg iv). Moreover, the Ki in test [3] was 52 ± 15 nM.
Regarding `O=C(Nc1ccc(C[C@@H]2CC[C@H]([C@H](O)c3ccccc3)N2)cc1)[C@@H]1CCc2cccc(=O)n21` [Compound 12, (3S)-N-[4-({(2S,5R)-5-[(R)-hydroxy(phenyl)methyl]pyrrolidin-2-yl}methyl)phenyl]-5-oxo-1,2,3,5-tetrahydroindolizine-3-carboxamide], in test [1] (setting [5]), the EC50 lay in the range of 1 to 10 nM. Besides, in test [4] (inhibiting EFS-induced contraction of rat bladder strips), the “times less potent than CL316243 (IC25)” value is reported as approximately 100 times. In addition, the “IC25 (concentration which induced 25% inhibition of detrusor contraction)” value in test [4] (single compound, rat bladder strips, EFS) amounted to 275 nM.
Regarding `O=C(Cn1cnccc1=O)Nc1ccc(C[C@@H]2CC[C@H]([C@H](O)c3ccccc3)N2)cc1` [Compound 9], in test [1] (setting [6]), the EC50 was 1 to 10 nM.
For the compound `Nc1nc(CC(=O)Nc2ccc(CC3CC[C@H]([C@H](O)c4ccccc4)N3)cc2)cs1` (stereo partly drawn) [Compound 1, 2-(2-Amino-1,3-thiazol-4-yl)-N-[4-({(5R)-[(R)-hydroxy(phenyl)methyl]pyrrolidinyl}methyl)phenyl]acetamide], the EC50 in test [1] (setting [5]) is 1 to 10 nM.
Turning to `O=C(Cn1ccccc1=O)Nc1ccc(C[C@@H]2CC[C@H]([C@H](O)c3ccccc3)N2)cc1` [Compound 10], the EC50 in test [1] (setting [6]) is 1 to 10 nM.
As for `Nc1nc2c(s1)CCC2C(=O)Nc1ccc(C[C@@H]2CC[C@H]([C@H](O)c3ccccc3)N2)cc1` (stereo partly drawn) [Compound 3], in test [1] (setting [5]), the EC50 is less than 1 nM.
For the compound `O=C(Cn1cccnc1=O)Nc1ccc(C[C@@H]2CC[C@H]([C@H](O)c3ccccc3)N2)cc1` [Compound 8], the EC50 in test [1] (setting [6]) was 1 to 10 nM.
Take `O=C(Nc1ccc(C[C@@H]2CC[C@H]([C@H](O)c3ccccc3)N2)cc1)[C@@H]1CCc2nccc(=O)n21` [Compound 14, (6S)-N-[4-({(2S, 5R)-5-[(R)-hydroxy(phenyl)methyl]pyrrolidin-2-yl}methyl)phenyl]-4-oxo-4,6,7,8-tetrahydropyrrolo[1,2-α]pyrimidine-6-carboxamide]: in test [1] (setting [5]), the EC50 was in the range of 11 to 100 nM. The “Bladder capacity, % change from baseline” value in test [2] (mono-therapy 0.003 mg/kg iv) was found to be 4.1%; in test [2] (mono-therapy 0.003 mg/kg iv, listed as Cpd 14) it was 4.1%; in test [2] (mono-therapy 0.01 mg/kg iv), 18.0%; in test [2] (mono-therapy 0.03 mg/kg iv) it was 27.3%; in test [2] (mono-therapy 0.1 mg/kg iv), 33.9%; in test [2] (mono-therapy 0.3 mg/kg iv), 31%. Moreover, in test [2] (mono-therapy 1 mg/kg iv), the “Bladder capacity, % change from baseline” value worked out at 55.9%.
`O=C(Nc1ccc(C[C@@H]2CC[C@H]([C@H](O)c3ccccc3)N2)cc1)[C@H]1CCc2cccc(=O)n21` [Compound 13, (3R)-N-[4-({(2S,5R)-5-[(R)-hydroxy(phenyl)methyl]pyrrolidin-2-yl}methyl)phenyl]-5-oxo-1,2,3,5-tetrahydroindolizine-3-carboxamide]: the EC50 in test [1] (setting [5]) is less than 1 nM.
As to `O=C(Cn1ncc2ccccc2c1=O)Nc1ccc(C[C@@H]2CC[C@H]([C@H](O)c3ccccc3)N2)cc1` [Compound 7], the EC50 in test [1] (setting [6]) is 1 to 10 nM.
On to `Cc1cnn(CC(=O)Nc2ccc(C[C@@H]3CC[C@H]([C@H](O)c4ccccc4)N3)cc2)c(=O)c1` [Compound 6], for which, in test [1] (setting [6]), the EC50 was 1 to 10 nM.
